# Test results published in patent US7771712B2, “Composition for attracting blood sucking arthropods and fruit flies” (priority 2002, dated 2010).
# System: female A. aegypti
# Experiment: Y-tube olfactometer, single compound added to index finger scent against pure finger
# Format: in vivo, Aedes aegypti
# Protocol: In this example, the effect of adding certain compounds to the scent of a finger of a human volunteer was tested, using the set-up as described for example 1. The right and left index finger of each test person were tested in direct competition with simultaneous addition of a single compound to one finger; Martina (A) is highly, Martin (B) medium, and Doris (C) low attractive. The test components were alternately added to the right or to the left finger, respectively. Bars (means of 16 trials±S.E.M.) represent the percentage of mosquitoes trapped in the respective upwind chamber. Black bars represent the pure finger, white bars the mixture of finger plus the odor stimulus indicated below the bar; stimulus labels as described in FIG. 3A; asterisks indicate a significant preference (P<0.05, t-test for paired samples).
# A) is a top view of the olfactometer for testing mosquitoes' odour preference. The spatial distribution of odourants in the air are outlined according to the appearance of TiCl4 smoke, which was injected into the olfactometer instead of the odour stimulus. In the arms of the olfactometer the smoke was homogeneous distributed^20. More turbulent odour eddies and filaments emerged in the rectangular chamber, although a steep gradient between both air streams can still be observed in the joined straight tube. For each test, 20 female A. aegypti mosquitoes were used from cultures of Bayer AG in Monheim, 5-15 days old, which had no blood meal before. Details of the olfactometer and the experimental procedure are described elsewhere (Geier, M. & Boeckh, J. Entomol. exp. appl. 92, 9-19 (1999); Geier, M., Bosch, O. J. & Boeckh, J. Chem. Sens. 24, 647-653 (1999)).
# At stimulus onset, 20 mosquitoes in the start chamber are set free to fly through the olfactometer. During their zig zag flight through the straight tube they encounter alternately air streams from either arm. Following the favoured air stream during upwind flight the mosquitoes enter the respective upwind chamber where they are counted 30 s after stimulus onset. […]
compound,measurement,setting,value
"N [Ammonia+100, Ammonia]",Attractiveness of finger scent plus compound against pure finger,"FIG. 4 A, highly attractive person",less attractive
"CC(=O)O [acetic acid, Acetic acid]",Attractiveness of finger scent plus compound against pure finger,"up to 50-fold higher concentration than in the standard blend, any of the persons",did not change the attractiveness
"CCCCCC(=O)O [capronic acid, Caproic acid]",Attractiveness of finger scent plus compound against pure finger,"FIG. 4 C, low attractive person, all concentrations",more attractive
